pIC50: −log10 of the molar value.
Columns and labels:
B16F10 = settings: cited from earlier work
RAW 264.7 macrophages = test: LIVE/DEAD cell viability assay of macrophages after photodynamic therapy; format: cell-based
Description: Uptake of PS-CPMV* and its efficacy for PDT of RAW 264.7 murine macrophages was initially tested using a LIVE/DEAD cell viability assay in a 96-well plate. The macrophages were allowed 8 h to take up either PS-CPMV* at a concentration of 5.0 μM PS or CPMV, CPMV*, and PS controls normalized according to PS or CPMV concentration. After washing, PDT was initialized using a mirror setup where light from a projector was reflected on the cell plate for 30 min. Cells were incubated overnight, then stained with a combination of calcein-AM and ethidium homodimer-1 to detect live and dead cells, respectively (FIG. 4a).
RAW 264.7 macrophages were seeded overnight in 96-well plates, with one plate used as a dark control, at a concentration of 10,000 cells/100 μL Dulbecco's modified Eagle's medium (DMEM, Gibco) supplemented with 10% (v/v) fetal bovine serum (FBS, Atlanta Biologicals) and 1% (v/v) penicillin-streptomycin (pen-strep, Life Technologies). Cells were then incubated for 8 h at 37° C. and 5% CO2 with triplicates of CPMV, CPMV*, PS-CPMV*, or PS corresponding to 5.0 μM PS or normalized for nanoparticle concentration accordingly. […] Cell viability was determined using a LIVE/DEAD assay for mammalian cells (Thermo Fisher) following manufacturer's procedures for cell staining and using a Zeiss Axio Observer Z1 motorized FL inverted microscope for imaging. […]

B16F10 melanoma cells [1] = test: LIVE/DEAD cell viability assay of melanoma cells; format: cell-based; settings: 5.0 μM, 8 hours, light 30 minutes
Description: The MTT assay is based on a yellow tetrazolium dye that is reduced to purple formazan via NAD(P)H-dependent oxidoreductase enzymes. This reduction is highly dependent on cellular metabolism in the mitochondria and is not high in cells with low cellular metabolic activity. Liu et al., Journal of neurochemistry, 69 (2), 581-93 (1997). Because photosensitizers are known to impact the functionality of the mitochondria, the MTT assay may be compromised as a result of impaired mitochondrial activity. Therefore, LIVE/DEAD cell viability assays were performed to further confirm therapeutic efficacy and cell killing. Cells were incubated with 5.0 μM of free Zn-EpPor or Zn-EpPorTMV, or corresponding controls, for 8 hours, washed, and illuminated for 30 minutes. This drug concentration was based on the MTT assay; it is over four times the IC50 value in B16F10 melanoma and should give maximal cell killing. The LIVE/DEAD assay was applied the next day, imaged, and images were analyzed using ImageJ to determine percent cell viability (FIG. 9B). […] On the contrary, cells exposed to both Zn-EpPor or Zn-EpPorTMV and light had 100% cell killing.
The staining procedure was as per manufacturer's recommendation.

B16F10 melanoma cells [2] = test: Flow cytometry of cell uptake (Zn-EpPor fluorescence); format: cell-based; settings: 10^6 particles/cell or corresponding amount of free drug, 8 hours
Description: Cell binding and uptake of the PDT delivery system was measured using both flow cytometry and confocal microscopy. […] Cell uptake was measured as a function of Zn-EpPor fluorescence (FIG. 8A). […] These studies were complemented with confocal microscopy to determine the intracellular fate of Zn-EpPor delivered by TMV. Following an 8-hour incubation of B16F10 cells with Zn-EpPorTMV particles, cells were fixed and stained with wheat germ agglutinin. Confocal fluorescence microscopy confirmed that Zn-EpPor is both taken up by the cells, and also dispersed throughout the cytoplasm (FIG. 8B), allowing it to exert their mechanism of action. The intracellular distribution of the Zn-EpPor drug was consistent with intracellular release of the cargo. We hypothesize that TMV is taken up and trafficked to the endolysosome, as previously reported. Wen et al., Bioconjugate chemistry, 26 (1), 51-62 (2015). […]
Confluent B16F10 cells were removed using Hank's based cell dissociation buffer (ThermoFisher) and added to 96-well v-bottom plates (200 μL/well, 2.5×10^6 cells/mL). […] Cells were washed 2 times, then resuspended in FACS buffer and analyzed on a BD FACSAria flow cytometer. Live cells were gated and 10,000 events were recorded; all experiments were carried out in triplicate. Data were analyzed on FlowJo 8.6.3 software.

[3] = Storage in the fridge, visual examination; format: physicochemical; settings: stored in the fridge over a period of a month
B16F10 melanoma cells [4] = test: MTT cell viability assay after white light illumination (Example II)
Description: Untreated cells and drug-free TMV carrier were used as controls. The TMV concentration was normalized to the drug-loaded concentration and corresponded to the highest amount of TMV used to determine the IC50 curves (FIG. 9A). Drug candidates and controls were incubated with B16F10 cells for 8 hours, washed, and then exposed to white light from a Vivitek D950HD projector under a rectangle (10.5 cm×11 cm) for 30 minutes. Following illumination, cells were returned to the incubator for 48 hours. Cell viability was assessed using an MTT cell viability assay and analyzed using GraphPad Prism.
Cell viability was assayed using MTT and LIVE/DEAD assays. Confluent cells were removed using 0.05% (w/v) trypsin-EDTA, added to 96-well plates (100 μL/well, 2×10^4 cells/mL), and grown overnight. Native TMV, drug loaded Zn-EpPorTMV, vs. free Zn-EpPor were added to cells using 0.025, 0.05, 0.1, 0.25, 0.5, 1.0, and 5.0 μM Zn-EpPor; cells were incubated for 8 hours at 37° C. and 5% CO2. Assays were done in triplicates and repeated at least twice. […] Cell viability was assessed using an MTT cell proliferation assay (ATCC); the procedure was as per manufacturer's recommendation. Alternatively, cell viability and cytotoxicity was determined using the LIVE/DEAD Viability/Cytotoxicity Kit for mammalian cells (ThermoFisher). […] Images were analyzed for percentage cell viability using ImageJ 1.47d.

In the case of `C=Cc1c(C)c2cc3nc(c(CC(=O)N[C@@H](CC(=O)O)C(=O)O)c4[nH]c(cc5nc(cc1[nH]2)C(C)=C5CC)c(C)c4C(=O)O)[C@@H](CCC(=O)O)[C@@H]3C` [Talaporfin, talaporfin], the pIC50 (B16F10; B16F10, previously reported) is listed as 5.07.
In the case of `C#Cc1ccc(C2=C3C=CC(=N3)C(c3cc[n+](C)cc3)=c3ccc4[n]3[Zn][n]3c2ccc3C(c2cc[n+](C)cc2)=C2C=CC(=N2)C=4c2cc[n+](C)cc2)cc1.[I-].[I-].[I-]` [Zn-EpPor, 5-(4-ethynylphenyl)-10,15,20-tris-(4-methylpyridin-4-ium-1-yl)porphyrin-zinc(II) triiodide], the “elimination of macrophages after PDT” value (RAW 264.7 macrophages; 5.0 μM PS, 8 h uptake, light 30 min, staining next day) was “completely eliminating the macrophages”, the “cytotoxicity in dark controls” value (RAW 264.7 macrophages; absence of light therapy) was “no cytotoxicity” and the cell killing (B16F10 melanoma cells [1]) was 100%. For the same compound, the “mean fluorescence intensity (MFI)” value (B16F10 melanoma cells [2]) was 956, the dispersion on storage [3] was “aggregation and sedimentation” and the pIC50 (B16F10 melanoma cells [4]; 8 hours incubation, white light 30 minutes, MTT after 48 hours, concentration as Zn-EpPor) was 6.27. For the same compound, the “cell killing in the dark” value (B16F10 melanoma cells [4]; no illumination) was “no cell killing was observed”.
For porfimir sodium [Photofrin], the “efficacy in pigmented melanoma” value (B16F10; melanin-heavy cells, such as the B16F10 cell line) is listed as “ineffective”.

From patent US10159736B2, “Plant virus particles for delivery of photosensitive agents” (Case Western Reserve University, priority 2016, dated 2018)
